Assay results: patent US3987052A, “6-Phenyl-4H-s-triazolo[4,3-a][1,4]benzodiazepines” (priority 1969, dated 1976)

Assays:
Format in all cases: in vivo
mice [1] = test: Chimney test: ability of mice to back up and out of a vertical glass cylinder within 30 seconds; settings: Mus musculus, ip
Experimental: (§1) Sedative effects of 8-chloro-1-methyl-6-phenyl-4H-s-triazolo-[4,3-a][1,4]benzodiazepine are shown by the following tests in mice:
Chimney test: [Med. Exp. 4, 145 (1961)]: The effective intraperitoneal dosage for 50% of mice (ED50) is 0.09 mg./kg. The test determines the ability of mice to back up and out of a vertical glass cylinder within 30 seconds. At the effective dosage, 50% of the mice failed doing it.

mice [2] = test: Dish test: mice remaining in Petri dish for more than 3 minutes; settings: Mus musculus
Experimental: as §1
Dish test: Mice in Petri dishes (10 cm. diameter, 5 cm. high, partially embedded in wood shavings), climb out in a very short time, when not treated. Mice remaining in the dish for more than 3 minutes indicates tranquilization. ED50 equals the dose of test compound at which 50% of the mice remain in the dish.

mice [3] = test: Pedestal test: mice staying on the pedestal for more than 1 minute; settings: Mus musculus
Experimental: as §1
Pedestal test: The untreated mouse leaves the pedestal in less than a minute to climb back to the floor of the standard mouse box. Tranquilized mice will stay on the pedestal for more than 1 minute. The ED50 (intraperitoneal administration) is 0.20 mg./kg.; the ED50 (oral administration) is 0.9 mg.kg.

mice [4] = test: Nicotine antagonism test (nicotine salicylate 2 mg./kg.); settings: Mus musculus
Experimental: Nicotine antagonism test: Mice in a group of 6 are injected with the test compound (8-chloro-1-methyl-6-phenyl-4H-s-triazolo[4,3-a][1,4]benzodiazepine). Thirty minutes later the mice including control (untreated) mice are injected with nicotine salicylate (2 mg./kg.). The control mice show overstimulation, i.e., (1) running convulsions followed by (2) tonic extensor fits; followed by (3) death.
Ni =]nicotine antagonism (3) test

mice [5] = test: Antagonism to strychnine (as sulfate), 3 mg./kg. intraperitoneally; settings: Mus musculus, po, 4 h, read-out: effective dosage ED50, antagonism to strychnine
Experimental: Antagonism to strychnine (as sulfate): The effective dosage ED50 of 8-chloro-1-methyl-6-phenyl-4H-s-triazolo[4,3-a][1,4]benzodiazepine is 1 mg./kg. orally in mice. The test consists in orally administering into groups of 6 mice the test compound, 8-chloro-1-methyl-6-phenyl-4H-s-triazolo[4,3-a][1,4]benzodiazepine, and 30 minutes later 3 mg./kg. strychnine sulfate intraperitoneally. The survivors after 4 hours reflect the activity of the compound as a muscle relaxant and antispasmodic. A dosage of 3 mg./kg. of strychnine sulfate is routinely fatal to all the control mice.

[6] = intraperitoneal injection, table 1, read-out: ED50 Ch (chimney test)
[7] = ip, intraperitoneal injection, table 1, read-out: ED50 D (dish test)
[8] = ip, intraperitoneal injection, table 1, read-out: ED50 P (pedestal test)
[9] = ip, intraperitoneal injection, table 1, read-out: ED50 Ni (nicotine antagonism (3) test)

SMILES	ED50 (mice [1]; [6]) [mg/kg]	ED50 (mice [2]; [7]) [mg/kg]	ED50 (mice [3]; [8]) [mg/kg]	ED50 (mice [4]; [9]) [mg/kg]	ED50 (mice [1]; intraperitoneal, mice, read-out: effective intraperitoneal dosage for 50% of mice (ED50), chimney test) [mg/kg]	ED50 (mice [2]; ip, intraperitoneal administration, mice, read-out: ED50, dish test) [mg/kg]	ED50 (mice [2]; oral, mice, read-out: oral ED50, dish test) [mg/kg]	ED50 (mice [3]; ip, intraperitoneal administration, mice, read-out: ED50, pedestal test) [mg/kg]	ED50 (mice [3]; oral administration, mice, read-out: ED50, pedestal test) [mg/kg]	ED50 (mice [4]; ip, intraperitoneal, 30 minutes before nicotine salicylate 2 mg./kg., mice, read-out: intraperitoneal dosage that protected 50% of the mice against (2) tonic extensor fits and (3) death (ED50)) [mg/kg]	ED50 (mice [4]; oral, before nicotine salicylate 2 mg./kg., mice, read-out: oral ED50, nicotine antagonism) [mg/kg]	ED50 (mice [5]) [mg/kg]
Cc1nnc2n1-c1ccc(Cl)cc1C(c1ccccc1Cl)=NC2 [8-Chloro-1-methyl-6-(o-chlorophenyl)-4H-s-triazolo[4,3-a][1,4]benzodiazepin]	0.05	0.028	0.045	0.008	–	–	–	–	–	–	–	–
Cc1nnc2n1-c1ccc(Cl)cc1C(c1ccccc1)=NC2 [8-chloro-1-methyl-6-phenyl-4H-s-triazolo[4,3-a][1,4]benzodiazepine]	–	–	–	–	0.09	0.15	0.045	0.2	0.9	0.1	0.04	1
Cc1nnc2n1-c1ccc(Cl)cc1C(c1c(F)cccc1F)=NC2 [8-chloro-1-methyl-6-(2,6-difluorophenyl)-4H-s-triazolo[4,3-a][1,4]benzodiazepine]	0.009	0.016	0.02	0.018	–	–	–	–	–	–	–	–
Clc1ccc2c(c1)C(c1ccccc1)=NCc1nncn1-2 [8-chloro-6-phenyl-4H-s-triazolo[4,3-a][1,4]benzodiazepine]	0.25	0.4	0.7	0.08	–	–	–	–	–	–	–	–
Cc1nnc2n1-c1ccc(Cl)cc1C(c1ccccc1F)=NC2 [8-chloro-1-methyl-6-(o-fluorophenyl)-4H-s-triazolo[4,3-a][1,4]benzodiazepine]	0.056	0.016	0.028	0.009	–	–	–	–	–	–	–	–
CCc1nnc2n1-c1ccc(Cl)cc1C(c1ccccc1)=NC2 [8-Chloro-1-ethyl-6-phenyl-4H-s-triazolo[4,3-a]-[1,4]benzodiazepine]	0.8	0.9	0.9	0.2	–	–	–	–	–	–	–	–
Cc1nnc2n1-c1ccc(C(F)(F)F)cc1C(c1ccccc1)=NC2 [1-methyl-6-phenyl-8-(trifluoromethyl)-4H-s-triazolo[4,3-a][1,4]benzodiazepine]	0.16	0.16	0.22	0.08	–	–	–	–	–	–	–	–
